Assay results: patent publication US11339128B2 (Firmenich Incorporated, priority 2014, dated 2022)

Molecular target: T1, T1R2/T1R3 taste receptor (Homo sapiens, UniProt Q7RTX0+Q8TE23)
T1 sequence (Q8TE23 20-839): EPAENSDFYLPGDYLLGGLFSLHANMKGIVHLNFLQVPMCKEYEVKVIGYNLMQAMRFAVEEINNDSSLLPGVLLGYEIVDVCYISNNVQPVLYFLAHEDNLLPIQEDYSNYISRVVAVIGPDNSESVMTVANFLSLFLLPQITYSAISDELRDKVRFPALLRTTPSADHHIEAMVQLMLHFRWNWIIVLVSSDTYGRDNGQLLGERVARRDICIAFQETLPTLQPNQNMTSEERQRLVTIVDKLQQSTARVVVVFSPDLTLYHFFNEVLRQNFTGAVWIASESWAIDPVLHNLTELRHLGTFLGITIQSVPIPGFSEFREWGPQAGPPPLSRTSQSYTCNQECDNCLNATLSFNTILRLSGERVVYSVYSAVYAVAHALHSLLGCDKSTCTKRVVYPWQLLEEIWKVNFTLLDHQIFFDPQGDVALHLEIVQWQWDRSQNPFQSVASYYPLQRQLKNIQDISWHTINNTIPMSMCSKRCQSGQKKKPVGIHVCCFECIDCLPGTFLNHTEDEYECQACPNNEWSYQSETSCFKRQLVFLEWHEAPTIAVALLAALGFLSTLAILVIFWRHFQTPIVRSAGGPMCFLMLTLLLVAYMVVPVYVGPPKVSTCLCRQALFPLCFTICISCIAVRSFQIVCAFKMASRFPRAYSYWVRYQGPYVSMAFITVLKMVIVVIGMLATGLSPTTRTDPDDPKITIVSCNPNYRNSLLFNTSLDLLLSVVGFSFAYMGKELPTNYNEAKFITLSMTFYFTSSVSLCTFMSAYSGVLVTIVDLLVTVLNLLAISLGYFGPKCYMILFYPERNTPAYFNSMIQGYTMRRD
T1 sequence (Q7RTX0 21-852): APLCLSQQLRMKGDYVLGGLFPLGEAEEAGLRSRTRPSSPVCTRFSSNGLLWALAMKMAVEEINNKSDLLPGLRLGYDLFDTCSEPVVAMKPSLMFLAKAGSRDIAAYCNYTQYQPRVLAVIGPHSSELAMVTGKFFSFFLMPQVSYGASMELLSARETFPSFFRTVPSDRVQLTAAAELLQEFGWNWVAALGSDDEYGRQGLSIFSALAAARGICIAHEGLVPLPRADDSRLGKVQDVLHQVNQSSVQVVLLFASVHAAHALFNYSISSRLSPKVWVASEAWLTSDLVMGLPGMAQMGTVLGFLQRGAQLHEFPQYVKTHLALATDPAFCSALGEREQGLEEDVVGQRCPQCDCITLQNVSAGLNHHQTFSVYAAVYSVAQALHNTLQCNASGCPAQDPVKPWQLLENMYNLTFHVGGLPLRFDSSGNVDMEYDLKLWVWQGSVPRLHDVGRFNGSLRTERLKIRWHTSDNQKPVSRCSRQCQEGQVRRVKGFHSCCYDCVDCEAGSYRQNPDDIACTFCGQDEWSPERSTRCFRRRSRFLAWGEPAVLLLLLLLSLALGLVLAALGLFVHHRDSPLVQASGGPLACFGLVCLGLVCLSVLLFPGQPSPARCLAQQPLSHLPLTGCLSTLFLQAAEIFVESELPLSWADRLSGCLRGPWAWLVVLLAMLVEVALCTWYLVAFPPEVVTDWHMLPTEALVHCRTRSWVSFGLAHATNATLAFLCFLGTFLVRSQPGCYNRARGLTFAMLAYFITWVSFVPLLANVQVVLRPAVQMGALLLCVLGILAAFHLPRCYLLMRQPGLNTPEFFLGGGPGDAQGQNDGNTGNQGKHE
Assay: Receptor-based assay: sweetener EC50 enhancement ratio with and without test compound
Assay type: cell-based
Conditions: 1 μM test compound; sweetener sucrose
Outline: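 Sweetener (sucrose, sucralose, fructose) EC50 measured alone and with 1, 3, 10 or 50 μM test compound. Enhancement ratio = EC50 without/with compound; A = >1 to <10, B = 10–20, C = >20.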

SMILES | Sucrose Enhancement EC50 Ratio
Cc1cnc(N[C@H]2CC[C@H](Oc3cccc4nc(C)c(C(=O)O)c(N)c34)CC2)nc1 [Compound 705] | A (an enhancement ratio of greater than 1 and less than 10)
CCCc1cnc(N[C@H]2CC[C@H](Oc3cccc4nc(C)c(C(=O)O)c(N)c34)CC2)nc1 [Compound 706] | A (an enhancement ratio of greater than 1 and less than 10)
COc1ccnc(N[C@H]2CC[C@H](Oc3cccc4nc(C)c(C(=O)O)c(N)c34)CC2)n1 [Compound 707] | A (an enhancement ratio of greater than 1 and less than 10)
Cc1ccnc(N[C@H]2CC[C@H](Oc3cccc4nc(C)c(C(=O)O)c(N)c34)CC2)n1 [Compound 708] | A (an enhancement ratio of greater than 1 and less than 10)
CCCc1ccnc(N[C@H]2CC[C@H](Oc3cccc4nc(C)c(C(=O)O)c(N)c34)CC2)n1 [Compound 709] | A (an enhancement ratio of greater than 1 and less than 10)

Same assay, conditions: 3 μM test compound; sweetener sucralose

SMILES | Sucralose Enhancement EC50 Ratio
Cc1cnc(N[C@H]2CC[C@H](Oc3cccc4nc(C)c(C(=O)O)c(N)c34)CC2)nc1 [Compound 705] | A (an enhancement ratio of greater than 1 and less than 10)
CCCc1cnc(N[C@H]2CC[C@H](Oc3cccc4nc(C)c(C(=O)O)c(N)c34)CC2)nc1 [Compound 706] | A (an enhancement ratio of greater than 1 and less than 10)
COc1ccnc(N[C@H]2CC[C@H](Oc3cccc4nc(C)c(C(=O)O)c(N)c34)CC2)n1 [Compound 707] | A (an enhancement ratio of greater than 1 and less than 10)
Cc1ccnc(N[C@H]2CC[C@H](Oc3cccc4nc(C)c(C(=O)O)c(N)c34)CC2)n1 [Compound 708] | C (an enhancement ratio greater than 20)
CCCc1ccnc(N[C@H]2CC[C@H](Oc3cccc4nc(C)c(C(=O)O)c(N)c34)CC2)n1 [Compound 709] | A (an enhancement ratio of greater than 1 and less than 10)

Same assay, conditions: 3 μM test compound; sweetener sucrose

SMILES | Sucrose Enhancement EC50 Ratio
Cc1cnc(N[C@H]2CC[C@H](Oc3cccc4nc(C)c(C(=O)O)c(N)c34)CC2)nc1 [Compound 705] | B (an enhancement ratio from 10 to 20)
CCCc1cnc(N[C@H]2CC[C@H](Oc3cccc4nc(C)c(C(=O)O)c(N)c34)CC2)nc1 [Compound 706] | A (an enhancement ratio of greater than 1 and less than 10)
COc1ccnc(N[C@H]2CC[C@H](Oc3cccc4nc(C)c(C(=O)O)c(N)c34)CC2)n1 [Compound 707] | A (an enhancement ratio of greater than 1 and less than 10)
Cc1ccnc(N[C@H]2CC[C@H](Oc3cccc4nc(C)c(C(=O)O)c(N)c34)CC2)n1 [Compound 708] | C (an enhancement ratio greater than 20)
CCCc1ccnc(N[C@H]2CC[C@H](Oc3cccc4nc(C)c(C(=O)O)c(N)c34)CC2)n1 [Compound 709] | A (an enhancement ratio of greater than 1 and less than 10)

Same assay, conditions: 10 μM test compound; sweetener fructose

SMILES | Fructose Enhancement EC50 Ratio
Cc1cnc(N[C@H]2CC[C@H](Oc3cccc4nc(C)c(C(=O)O)c(N)c34)CC2)nc1 [Compound 705] | A (an enhancement ratio of greater than 1 and less than 10)
CCCc1cnc(N[C@H]2CC[C@H](Oc3cccc4nc(C)c(C(=O)O)c(N)c34)CC2)nc1 [Compound 706] | A (an enhancement ratio of greater than 1 and less than 10)
COc1ccnc(N[C@H]2CC[C@H](Oc3cccc4nc(C)c(C(=O)O)c(N)c34)CC2)n1 [Compound 707] | A (an enhancement ratio of greater than 1 and less than 10)
Cc1ccnc(N[C@H]2CC[C@H](Oc3cccc4nc(C)c(C(=O)O)c(N)c34)CC2)n1 [Compound 708] | A (an enhancement ratio of greater than 1 and less than 10)

Same assay, conditions: 10 μM test compound; sweetener sucralose

SMILES | Sucralose Enhancement EC50 Ratio
Cc1cnc(N[C@H]2CC[C@H](Oc3cccc4nc(C)c(C(=O)O)c(N)c34)CC2)nc1 [Compound 705] | B (an enhancement ratio from 10 to 20)
CCCc1cnc(N[C@H]2CC[C@H](Oc3cccc4nc(C)c(C(=O)O)c(N)c34)CC2)nc1 [Compound 706] | B (an enhancement ratio from 10 to 20)
COc1ccnc(N[C@H]2CC[C@H](Oc3cccc4nc(C)c(C(=O)O)c(N)c34)CC2)n1 [Compound 707] | B (an enhancement ratio from 10 to 20)
Cc1ccnc(N[C@H]2CC[C@H](Oc3cccc4nc(C)c(C(=O)O)c(N)c34)CC2)n1 [Compound 708] | C (an enhancement ratio greater than 20)
CCCc1ccnc(N[C@H]2CC[C@H](Oc3cccc4nc(C)c(C(=O)O)c(N)c34)CC2)n1 [Compound 709] | A (an enhancement ratio of greater than 1 and less than 10)

Same assay, conditions: 10 μM test compound; sweetener sucrose

SMILES | Sucrose Enhancement EC50 Ratio
Cc1cnc(N[C@H]2CC[C@H](Oc3cccc4nc(C)c(C(=O)O)c(N)c34)CC2)nc1 [Compound 705] | B (an enhancement ratio from 10 to 20)
CCCc1cnc(N[C@H]2CC[C@H](Oc3cccc4nc(C)c(C(=O)O)c(N)c34)CC2)nc1 [Compound 706] | B (an enhancement ratio from 10 to 20)
COc1ccnc(N[C@H]2CC[C@H](Oc3cccc4nc(C)c(C(=O)O)c(N)c34)CC2)n1 [Compound 707] | B (an enhancement ratio from 10 to 20)
Cc1ccnc(N[C@H]2CC[C@H](Oc3cccc4nc(C)c(C(=O)O)c(N)c34)CC2)n1 [Compound 708] | C (an enhancement ratio greater than 20)
CCCc1ccnc(N[C@H]2CC[C@H](Oc3cccc4nc(C)c(C(=O)O)c(N)c34)CC2)n1 [Compound 709] | A (an enhancement ratio of greater than 1 and less than 10)

Same assay, conditions: 50 μM test compound; sweetener fructose

SMILES | Fructose Enhancement EC50 Ratio
CCCc1cnc(N[C@H]2CC[C@H](Oc3cccc4nc(C)c(C(=O)O)c(N)c34)CC2)nc1 [Compound 706] | A (an enhancement ratio of greater than 1 and less than 10)
COc1ccnc(N[C@H]2CC[C@H](Oc3cccc4nc(C)c(C(=O)O)c(N)c34)CC2)n1 [Compound 707] | A (an enhancement ratio of greater than 1 and less than 10)
